Patent US20100168112A1, “2-Substituted and 4-substituted aryl nitrone compounds” (RENOVIS, INC., priority 2004, published 2010)

How the values were obtained:
STZ-diabetic rats [1] = assay: Diabetic neuropathy, mechanical hyperalgesia (paw-withdrawal reflex test, Basile Analgesymeter); assay type: in vivo, Sprague Dawley (SD) rats; conditions: p.o., bid; for PWT (paw-withdrawal threshold), mechanical hyperalgesia: STZ-diabetic rats, mean ± SEM
Description: In this example, the ability of Compound 62 to produce beneficial effects in protecting against and/or reversing the pathology of neuropathy in a streptozotocin (STZ)-induced rat model of diabetes. To evaluate if chronic treatment with Compound 62 protects the diabetic animals from developing neuropathy, they were examined for mechanical hyperalgesia responses.
(§1) Adult male Sprague Dawley (SD) rats weighing 250-300 gm (Charles River Laboratories, San Diego, Calif.) were used. The animal room was lighted artificially at a 12-hr light-dark cycle (from 7:00 A.M. to 7:00 P.M.) with water and food supply ad libitum. Animals were allocated randomly into groups. Forty-nine (49) days prior to the behavioral tests, rats received a bolus injection of STZ (75 mg/kg, i.v.). STZ was dissolved in 0.1 M sodium citrate buffer, pH 4.5 solution, at the concentration of 75 mg/ml. To ensure the development of hyperglycemia, their non-fasted levels of glucose in whole blood, obtained via tail veins, were evaluated, using a glocometer (Accucheck®, Roche Diagnostics, Palo Alto, Calif.), once a week. Animals failing to show hyperglycemic conditions (i.e., whole blood glucose>120 mg/dL) were removed from the study. Diabetic rats were treated orally with Compound 62 (5 mg/kg or 25 mg/kg, both bid) or vehicle (1 ml/kg, bid), starting the date of STZ-injection. Compound 62 was dissolved in vehicle, which is composed of 96% of 0.5% CMC and 4% of 10% Tween 80. As a control, a group of naive rats received oral Compound 62 (25 mg/kg, bid) or vehicle (1 ml/kg, bid) treatment. Each group had >12 rats. Time-effect curves of the STZ diabetic rats (Compound 62 vs. Vehicle) were compared with each other, while curves of the naive rats (Compound 62 vs. Vehicle) were compared with each other. The comparisons were conducted, using two-way (group×time) repeated measures analysis of variance (ANOVA) followed by Fishers post-hoc test. A probability value of p<0.05 was considered as statistically significant.
Before the experiments, these rats were trained in the paw-withdrawal reflex test, using a Basile Analgesymeter (Ugo Basile, Biological Research Apparatus, Comerio VA, Italy), which applies a linearly increasing mechanical force to the dorsum of the rats hind paw. The training of mechanical nociceptive flexion reflex response was performed on lightly restrained rats, at 5-min intervals for 1 hr each day for a period of 5 days. On the day of the experiment, paw-withdrawal thresholds (PWT) (i.e., mechanical force that causes the animal to withdraw its paw from the stimulus) were measured at 5-min intervals for 1 hr. The mean was obtained from the average of the last 6 PWT readings. […]

STZ-diabetic rats [2] = assay: Diabetic neuropathy, mechanical allodynia (von Frey filaments); assay type: in vivo, rat; conditions: 25 mg/kg, p.o., bid, x49 d
Protocol: as §1, with “Time-effect curves of the STZ diabetic rats (Compound 62 vs. Vehicle) were compared with each other, while curves of the naive rats (Compound 62 vs. Vehicle) were compared with each other. The comparisons were conducted, using two-way (group×time) repeated measures analysis of variance (ANOVA) followed by Fishers post-hoc test. A probability value of p<0.05 was considered as statistically significant.” left out

SMILES: CC(C)(C)/[N+]([O-])=C/c1ccc(S(C)(=O)=O)cc1 [Compound 62, N-tert-Butyl-C-[4-(methanesulfonyl)phenyl]nitrone]
- significantly reversed mechanical hyperalgesia compared with vehicle-treated STZ-diabetic rats (in words) (STZ-diabetic rats [1]; 5 mg/kg, x49 d): not
- reversal of mechanical hyperalgesia compared with vehicle-treated STZ-diabetic rats (in words) (STZ-diabetic rats [1]; 25 mg/kg, x49 d): significantly reversed mechanical hyperalgesia
- PWT (paw-withdrawal threshold), mechanical hyperalgesia (STZ-diabetic rats [1]; 5 mg/kg, x49 d (low dose, 62L)): 70.29 ± 3.18 GRAMS
- PWT (paw-withdrawal threshold), mechanical hyperalgesia (STZ-diabetic rats [1]; 25 mg/kg, x49 d (high dose, 62H)): 86.86 ± 4.79 GRAMS
- effect on PWT / reversal of allodynia vs vehicle (in words) (STZ-diabetic rats [2]): significantly enhanced the PWT
- PWT (von Frey), mechanical allodynia (STZ-diabetic rats [2]; mean ± SEM): 6.08 ± 0.94 GRAMS
